From PubChem BioAssay (NCI)
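The compound was tested at five concentrations on cells cultured in 96-well plates, with a 48-hour exposure period. The concentration for full growth arrest is given as TGI.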

What was measured:
Experiment in all cases: NCI anticancer screen, dose series, 48 h
786-0 renal = tested on: 786-0 renal
A498 renal = tested on: A498 renal
A549 NSCLC = tested on: A549 NSCLC
ACHN renal = tested on: ACHN renal
BT-549 breast = tested on: BT-549 breast
CAKI-1 renal = tested on: CAKI-1 renal
CCRF-CEM leukemia = tested on: CCRF-CEM leukemia
COLO 205 colon = tested on: COLO 205 colon
DU-145 prostate = tested on: DU-145 prostate
EKVX NSCLC = tested on: EKVX NSCLC
HCC-2998 colon = tested on: HCC-2998 colon
HCT-116 colon = tested on: HCT-116 colon
HCT-15 colon = tested on: HCT-15 colon
HL-60(TB) leukemia = tested on: HL-60(TB) leukemia
HOP-62 NSCLC = tested on: HOP-62 NSCLC
HOP-92 NSCLC = tested on: HOP-92 NSCLC
HT29 colon = tested on: HT29 colon
IGROV1 ovarian = tested on: IGROV1 ovarian
K-562 leukemia = tested on: K-562 leukemia
KM12 colon = tested on: KM12 colon
LOX IMVI melanoma = tested on: LOX IMVI melanoma
M14 melanoma = tested on: M14 melanoma
MALME-3M melanoma = tested on: MALME-3M melanoma
MCF7 breast = tested on: MCF7 breast
MDA-MB-231 breast = tested on: MDA-MB-231 breast
MDA-MB-435 = tested on: MDA-MB-435
MDA-N = tested on: MDA-N
MOLT-4 leukemia = tested on: MOLT-4 leukemia
NCI-H226 lung = tested on: NCI-H226 lung
NCI-H23 lung = tested on: NCI-H23 lung
NCI-H460 lung = tested on: NCI-H460 lung
NCI-H522 lung = tested on: NCI-H522 lung
NCI/ADR-RES ovarian = tested on: NCI/ADR-RES ovarian
OVCAR-4 ovarian = tested on: OVCAR-4 ovarian
OVCAR-5 ovarian = tested on: OVCAR-5 ovarian
OVCAR-8 ovarian = tested on: OVCAR-8 ovarian
PC-3 prostate = tested on: PC-3 prostate
RPMI-8226 leukemia = tested on: RPMI-8226 leukemia
RXF 393 renal = tested on: RXF 393 renal
SF-268 CNS = tested on: SF-268 CNS
SF-539 CNS = tested on: SF-539 CNS
SK-MEL-2 melanoma = tested on: SK-MEL-2 melanoma
SK-MEL-28 melanoma = tested on: SK-MEL-28 melanoma
SN12C renal = tested on: SN12C renal
SNB-19 CNS = tested on: SNB-19 CNS
SNB-75 CNS = tested on: SNB-75 CNS
SR leukemia = tested on: SR leukemia
SW-620 colon = tested on: SW-620 colon
T-47D breast = tested on: T-47D breast
TK-10 renal = tested on: TK-10 renal
U251 CNS = tested on: U251 CNS
UACC-257 melanoma = tested on: UACC-257 melanoma
UACC-62 melanoma = tested on: UACC-62 melanoma
UO-31 renal = tested on: UO-31 renal
OVCAR-3 ovarian = tested on: OVCAR-3 ovarian
SF-295 CNS = tested on: SF-295 CNS
SK-MEL-5 melanoma = tested on: SK-MEL-5 melanoma
SK-OV-3 ovarian = tested on: SK-OV-3 ovarian
HS 578T breast = tested on: HS 578T breast

Measured: TGI

CC(CC(C)[C@H]1CCC2[C@H]3C(CC[C@@]21C)[C@@]1(C)CCC(O)C[C@H]1C[C@@H]3O)C(=O)O (some centres not stated)
not listed: OVCAR-3 ovarian | SF-295 CNS | SK-MEL-5 melanoma | SK-OV-3 ovarian | HS 578T breast
> 100 µM: all other assays above

CS(=O)(=O)c1nc(-c2cc3c(c(S(C)(=O)=O)n2)CCC3)cc2c1CCC2
85.1 µM: IGROV1 ovarian
53.4 µM: SNB-75 CNS
not listed: HOP-92 NSCLC | MALME-3M melanoma | MCF7 breast | SR leukemia | T-47D breast | HS 578T breast
> 100 µM: all other assays above

O=C(/C=C/c1ccccc1O)CC(=O)/C=C/c1ccccc1O
23.3 µM: OVCAR-8 ovarian
6.45 µM: LOX IMVI melanoma
14.5 µM: NCI/ADR-RES ovarian
26.9 µM: A549 NSCLC
17 µM: SK-MEL-2 melanoma
7.58 µM: UACC-62 melanoma
18.7 µM: UACC-257 melanoma
45.7 µM: BT-549 breast
13.3 µM: MDA-N
9.06 µM: RXF 393 renal
22.3 µM: OVCAR-3 ovarian
7.61 µM: MCF7 breast
> 25 µM: SR leukemia
19.4 µM: HOP-62 NSCLC
15.8 µM: HCC-2998 colon
16.1 µM: 786-0 renal
31.3 µM: EKVX NSCLC
12.6 µM: UO-31 renal
22.9 µM: SNB-19 CNS
14.6 µM: SK-MEL-5 melanoma
30.7 µM: NCI-H460 lung
9.83 µM: NCI-H522 lung
19.9 µM: HCT-15 colon
15.5 µM: RPMI-8226 leukemia
> 100 µM: TK-10 renal
17.5 µM: MALME-3M melanoma
> 88.1 µM: OVCAR-4 ovarian
> 26.2 µM: CCRF-CEM leukemia
53.7 µM: HOP-92 NSCLC
24 µM: SW-620 colon
51.3 µM: A498 renal
25.7 µM: IGROV1 ovarian
13 µM: U251 CNS
> 78.7 µM: SNB-75 CNS
9.87 µM: HL-60(TB) leukemia
7.42 µM: HCT-116 colon
20.6 µM: SN12C renal
16.9 µM: NCI-H23 lung
25.9 µM: ACHN renal
29.9 µM: CAKI-1 renal
> 31.6 µM: DU-145 prostate | HS 578T breast | K-562 leukemia | M14 melanoma | MDA-MB-435 | MOLT-4 leukemia | SF-295 CNS | SK-MEL-28 melanoma | T-47D breast
15.7 µM: SF-539 CNS
